Assay results reported in ChEMBL document CHEMBL1141468, “Photoactivated enediynes as targeted antitumoral agents: efficient routes to antibody and gold nanoparticle conjugates” (Bioorg Med Chem Lett, 2008).

Experiment: Radiation-induced photodegradation in […] X174 Rf1 DNA assessed as conversion of type 2 DNA at 1 uM after 3 hrs

- Activity: 24%
SMILES: O=C(O)CCOCCOCCOCCOCCOCCOCCOCCOCCOCCOCCOCCOCCOCCC(=O)OCc1ccc(C#Cc2ccccc2C#Cc2ccccc2)cc1
